Key:
Carbonic anhydrase [1] = biological target: T1, Carbonic anhydrase (Candida glabrata CBS 138, UniProt Q6FTL6); set-up: species or system Nakaseomyces glabratus
T1 sequence (Q6FTL6 whole entry): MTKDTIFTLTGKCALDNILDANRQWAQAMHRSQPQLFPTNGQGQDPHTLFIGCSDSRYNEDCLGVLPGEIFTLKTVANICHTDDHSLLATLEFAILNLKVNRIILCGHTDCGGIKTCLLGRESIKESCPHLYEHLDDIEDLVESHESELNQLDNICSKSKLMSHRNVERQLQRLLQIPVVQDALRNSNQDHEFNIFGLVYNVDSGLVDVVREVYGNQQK

Carbonic anhydrase [2] = biological target: T2, Carbonic anhydrase (Candida albicans (strain SC5314 / ATCC MYA-2876) (Yeast), UniProt Q5AJ71)
T2 sequence (Q5AJ71 whole entry): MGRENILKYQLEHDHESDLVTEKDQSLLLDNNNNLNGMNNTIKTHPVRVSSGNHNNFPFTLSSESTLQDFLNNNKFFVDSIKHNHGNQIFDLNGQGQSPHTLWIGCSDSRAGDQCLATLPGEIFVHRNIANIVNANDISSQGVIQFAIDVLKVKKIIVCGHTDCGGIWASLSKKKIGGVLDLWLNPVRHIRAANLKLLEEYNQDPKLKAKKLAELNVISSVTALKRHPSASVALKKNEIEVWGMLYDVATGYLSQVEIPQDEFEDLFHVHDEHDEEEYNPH

Carbonic anhydrase 2 = Carbonic anhydrase 2 (Homo sapiens, UniProt P00918); test: Inhibition of human carbonic anhydrase-2 preincubated for 15 mins by stopped-flow CO2 hydrase assay
[3] = Selectivity ratio of Ki for human carbonic anhydrase-2 to Ki for recombinant full length Candida glabrata NCE103

Compound | Ki (Carbonic anhydrase [1]; read-out: Ki) [µM] | Ki (Carbonic anhydrase [2]) [µM] | also measured
CCCCOc1ccc(NC(=O)Nc2ccc(NS(N)(=O)=O)cc2)cc1 | 0.0139 | 0.135 | –
CC1(C)O[C@@H]2[C@@H](CO[C@@]3(COS(N)(=O)=O)OC(C)(C)O[C@@H]23)O1 [TOPIRAMATE] | 0.11 | – | –
NS(=O)(=O)Nc1ccc(NC(=O)NCCc2ccccc2)cc1 | 0.0151 | 0.13 | –
NS(=O)(=O)Oc1ccc(NC(=O)Nc2c(F)cc(F)cc2Br)cc1 | 0.005 | 0.084 | –
NS(=O)(=O)Nc1ccc(NC(=O)Nc2ccccc2-c2ccccc2)cc1 | 0.0067 | 0.072 | –
NS(=O)(=O)c1ccc(NC(=O)Nc2ccccc2)cc1 | 0.073 | – | –
Nc1ccc(S(N)(=O)=O)cc1I | – | – | Ki (Carbonic anhydrase [1]): 0.128 µM
NS(=O)(=O)Nc1ccc(NC(=O)NC2CCCCC2)cc1 | 0.0801 | 0.134 | –
NS(=O)(=O)c1ccc(NC(=O)NCCc2ccccc2)cc1 | 0.056 | 0.124 | Ki (Carbonic anhydrase 2): 0.66 µM
NS(=O)(=O)Oc1ccc(NC(=O)Nc2cccc3ccccc23)cc1 | 0.089 | 1.43 | –
NS(=O)(=O)Oc1ccc(NC(=O)NCCc2ccccc2)cc1 | 0.0075 | 0.133 | –
NS(=O)(=O)Nc1ccc(NC(=O)NCc2ccccc2)cc1 | 0.0243 | 0.146 | –
NS(=O)(=O)Oc1ccc(NC(=O)Nc2ccc([N+](=O)[O-])cc2)cc1 | 0.0064 | 0.106 | –
NS(=O)(=O)Oc1ccc(NC(=O)Nc2ccccc2)cc1 | 0.0096 | – | –
Cc1ccc(-c2cc(C(F)(F)F)nn2-c2ccc(S(N)(=O)=O)cc2)cc1 [CELECOXIB] | 0.116 | – | –
NS(=O)(=O)Oc1ccc(NC(=O)Nc2ccc(C(F)(F)F)c(C(F)(F)F)c2C(F)(F)F)cc1 | 0.0058 | 0.076 | –
NS(=O)(=O)Nc1ccc(NC(=O)NCc2ccco2)cc1 | 0.0241 | 0.058 | –
NS(=O)(=O)c1ccc(NC(=O)NCc2ccccc2)cc1 | 0.081 | – | –
NS(=O)(=O)Nc1ccc(NC(=O)Nc2ccc(Cl)cc2)cc1 | 0.0055 | 0.102 | Ratio Ki [3]: 57
NCCc1ccc(S(N)(=O)=O)cc1 | 0.55 | – | –
Cc1cc(C)cc(NC(=O)Nc2ccc(NS(N)(=O)=O)cc2)c1 | 0.0085 | 0.139 | –
NS(=O)(=O)Oc1ccc(NC(=O)Nc2cccc(Cl)c2)cc1 | 0.089 | 0.124 | –
NS(=O)(=O)Oc1ccc(NC(=O)Nc2ccc(Cl)cc2)cc1 | 0.0094 | 0.505 | –
NS(=O)(=O)Oc1ccc(NC(=O)NCc2ccccc2)cc1 | 0.0084 | 0.137 | Ki (Carbonic anhydrase 2): 0.274 µM
NS(=O)(=O)Nc1ccc(NC(=O)Nc2cccc([N+](=O)[O-])c2)cc1 | 0.0041 | 0.109 | –
N#Cc1ccccc1NC(=O)Nc1ccc(OS(N)(=O)=O)cc1 | 0.089 | 0.156 | –
Cc1onc(-c2ccccc2)c1-c1ccc(S(N)(=O)=O)cc1 [VALDECOXIB] | 0.097 | – | –
CC(C)c1ccccc1NC(=O)Nc1ccc(NS(N)(=O)=O)cc1 | 0.0338 | 0.055 | –
NS(=O)(=O)Oc1ccc(NC(=O)Nc2ccc3c(c2)Cc2ccccc2-3)cc1 | 0.115 | 0.076 | –

Continued, in another order:

Ki (Carbonic anhydrase [1]; read-out: Ki) [µM] | Compound | Ki (Carbonic anhydrase [2]) [µM] | also measured
0.094 | NS(=O)(=O)c1ccc(S(=O)(=O)Nc2cccc3c(Cl)c[nH]c23)cc1 | – | –
0.0054 | NS(=O)(=O)c1ccc(NC(=O)Nc2ccc(Br)cc2)cc1 | – | –
8.01 | Nc1ccc(S(N)(=O)=O)cc1 [SULFANILAMIDE] | – | –
3.13 | CCOc1ccc2nc(S(N)(=O)=O)sc2c1 [ETHOXZOLAMIDE] | – | –
0.061 | NS(=O)(=O)c1ccc(CO)cc1 | – | –
0.865 | NCc1ccc(S(N)(=O)=O)cc1 [MAFENIDE] | – | –
0.952 | NS(=O)(=O)c1nnc(NS(=O)(=O)c2ccccc2)s1 [BENZOLAMIDE] | – | –
0.086 | Nc1cc(Cl)c(S(N)(=O)=O)cc1S(N)(=O)=O | – | –
4.35 | CCN[C@H]1CN(CCCOC)S(=O)(=O)c2sc(S(N)(=O)=O)cc21 [BRINZOLAMIDE] | – | –
0.108 | Nc1ccc(S(=O)(=O)NCc2ccc(S(N)(=O)=O)cc2)cc1 | – | –
0.786 | Cn1nc(S(N)(=O)=O)sc1=N | – | –
0.098 | Nc1ccc(S(N)(=O)=O)cc1F | – | –
0.106 | Nc1ccc(S(=O)(=O)Nc2nnc(S(N)(=O)=O)s2)cc1 | – | –
0.097 | Nc1ccc(S(N)(=O)=O)cc1Cl | – | –
0.097 | Nc1cc(C(F)(F)F)c(S(N)(=O)=O)cc1S(N)(=O)=O | – | –
0.098 | Nc1ccc(S(=O)(=O)NCCc2ccc(S(N)(=O)=O)cc2)cc1 | – | –
0.846 | Cc1ccc(S(N)(=O)=O)cc1 [P-TOLUENESULFONAMIDE] | – | –
0.109 | Nc1ccc(S(N)(=O)=O)cc1Br | – | –
0.083 | Nc1nccc(Nc2ccc(S(N)(=O)=O)cc2)n1 | – | –
0.095 | Nc1nnc(S(N)(=O)=O)s1 | – | –
0.048 | NS(=O)(=O)c1ccc(CCO)cc1 | – | –
0.0061 | NS(=O)(=O)c1ccc(NC(=O)Nc2cccc([N+](=O)[O-])c2)cc1 | – | –
0.007 | NS(=O)(=O)c1ccc(NC(=O)Nc2ccc(Cl)cc2)cc1 | – | –
0.42 | NS(=O)(=O)c1nnc(-c2ccccc2Cl)s1 | – | –
0.053 | NS(=O)(=O)c1ccc(C(=O)O)cc1 [CARZENIDE] | – | –
